Data reported in ChEMBL document CHEMBL1201862, “PubChem BioAssay data set” (2004).
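In this assay, cells in 96-well plates receive the compound at five concentrations for 48 hours. Endpoints are linearly interpolated between the surrounding concentrations. At the GI50, growth is halved.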 Activity calls are given as the source filed them. No stated cut-off is given here; in the data, active = GI50 up to about 1.1 µM and inactive = higher.

Columns and labels:
Assay in all cases: NCI anticancer screen, dose series, 48 h
[1] = test system: HL-60
[2] = test system: OVCAR-8
[3] = test system: HT-29
[4] = test system: SK-OV-3
[5] = test system: MOLT-4
[6] = test system: TK-10
[7] = test system: Hs-578T
[8] = test system: SN12C
[9] = test system: SR
[10] = test system: OVCAR-5
[11] = test system: SK-MEL-5
[12] = test system: SF-295
[13] = test system: 786-0
[14] = test system: SW-620
[15] = test system: A549
[16] = test system: K562
[17] = test system: NCI-H226
[18] = test system: LOX IMVI
[19] = test system: RPMI-8226
[20] = test system: KM12

SMILES | GI50 [1] | GI50 [2] | GI50 [3] | GI50 [4] | GI50 [5] | GI50 [6] | GI50 [7] | GI50 [8] | GI50 [9] | GI50 [10] | GI50 [11] | GI50 [12] | GI50 [13] | GI50 [14] | GI50 [15] | GI50 [16] | GI50 [17] | GI50 [18] | GI50 [19] | GI50 [20]
CC(C)C(C)/C=C\C(C)C1CCC2C3=CC=C4CC(O)CCC4(C)C3CCC21C (stereo not given) | 32.6 µM (inactive) | 29.2 µM (inactive) | 33.3 µM (inactive) | > 100 µM (inactive) | 17.7 µM (inactive) | > 55 µM (inactive) | > 41.3 µM (inactive) | > 42.1 µM (inactive) | 34.4 µM (inactive) | > 100 µM (inactive) | 23.8 µM (inactive) | > 64.9 µM (inactive) | > 43.2 µM (inactive) | > 49.3 µM (inactive) | > 100 µM (inactive) | 26.5 µM (inactive) | > 38 µM (inactive) | > 42.7 µM (inactive) | 29.3 µM (inactive) | > 54.8 µM (inactive)
CCCCCCCCCCCCCC(=O)OC(/C=C/C(C)C)C(O)C(O)C(OC)C(=O)NC1CCCCNC1=O (stereo not given) | 0.9 µM (active) | 1.02 µM (active) | 0.927 µM (active) | 2.54 µM (inactive) | 0.57 µM (active) | 5.6 µM (inactive) | 9.79 µM (inactive) | 0.579 µM (active) | 0.097 µM (active) | 3.65 µM (inactive) | 1.9 µM (inactive) | 0.721 µM (active) | 0.308 µM (active) | 0.372 µM (active) | 0.257 µM (active) | 0.627 µM (active) | 2.39 µM (inactive) | 0.408 µM (active) | 2.79 µM (inactive) | 0.448 µM (active)
COC(=O)Cc1ccc(Oc2nc3ccccc3nc2-c2cccs2)cc1 | > 100 µM (inactive) | 36.4 µM (inactive) | > 100 µM (inactive) | 24.8 µM (inactive) | > 100 µM (inactive) | 95.9 µM (inactive) | 39.8 µM (inactive) | > 100 µM (inactive) | > 100 µM (inactive) | > 100 µM (inactive) | > 100 µM (inactive) | 30.8 µM (inactive) | 40.7 µM (inactive) | > 100 µM (inactive) | > 100 µM (inactive) | > 100 µM (inactive) | 35.7 µM (inactive) | > 100 µM (inactive) | > 100 µM (inactive) | > 100 µM (inactive)
CC(C)c1c(O[Si](C(C)C)(C(C)C)C(C)C)c2c3c(ccc4c3c1OC4(C)C)C(C)CC2 (stereo not given) | > 100 µM (inactive) | > 100 µM (inactive) | > 100 µM (inactive) | > 100 µM (inactive) | > 100 µM (inactive) | > 100 µM (inactive) | > 100 µM (inactive) | > 100 µM (inactive) | > 100 µM (inactive) | > 100 µM (inactive) | > 100 µM (inactive) | > 100 µM (inactive) | > 100 µM (inactive) | > 100 µM (inactive) | > 100 µM (inactive) | > 100 µM (inactive) | > 100 µM (inactive) | > 100 µM (inactive) | > 100 µM (inactive) | > 100 µM (inactive)
CCOC(=O)Nc1ccc2c(c1)c(CCCCCCc1nc3ccccc3c3ccc(NC(=O)OCC)cc13)nc1ccccc12 | > 100 µM (inactive) | 25.4 µM (inactive) | > 100 µM (inactive) | 31.8 µM (inactive) | > 100 µM (inactive) | 26.2 µM (inactive) | > 100 µM (inactive) | 40.6 µM (inactive) | > 100 µM (inactive) | > 100 µM (inactive) | 78.9 µM (inactive) | 49.5 µM (inactive) | 18.4 µM (inactive) | > 100 µM (inactive) | 70 µM (inactive) | 80 µM (inactive) | 23.9 µM (inactive) | 21.6 µM (inactive) | > 100 µM (inactive) | > 100 µM (inactive)
COC(=O)/C=C\C(C#N)(C#N)/N=C/c1ccc(Br)cc1 | 0.0389 µM (active) | 5.47 µM (inactive) | 2.58 µM (inactive) | 18.8 µM (inactive) | 0.673 µM (active) | 2.45 µM (inactive) | 17.6 µM (inactive) | 5.42 µM (inactive) | 5.42 µM (inactive) | 14.1 µM (inactive) | 1.5 µM (inactive) | 18.2 µM (inactive) | 1.02 µM (active) | 2.76 µM (inactive) | 2.77 µM (inactive) | 3.4 µM (inactive) | 6.4 µM (inactive) | 1.85 µM (inactive) | 2.38 µM (inactive) | 14.4 µM (inactive)
COc1ccc(-c2cc(-c3cc(F)c(Cl)cc3Cl)[nH]n2)cc1OC | 15.6 µM (inactive) | 34.4 µM (inactive) | 22.1 µM (inactive) | 31.9 µM (inactive) | 14.5 µM (inactive) | 43.4 µM (inactive) | 43.7 µM (inactive) | 22.7 µM (inactive) | 11.1 µM (inactive) | > 100 µM (inactive) | 17.1 µM (inactive) | 18.3 µM (inactive) | 19.6 µM (inactive) | 29.6 µM (inactive) | 40.7 µM (inactive) | 46 µM (inactive) | 20.8 µM (inactive) | 18.4 µM (inactive) | 17.3 µM (inactive) | 26.4 µM (inactive)
CC(=O)OCC1C(=O)OCC1C(=O)N1Cc2cc3ccccc3nc2C1 (stereo not given) | 0.794 µM (active) | 3.2 µM (inactive) | 2.78 µM (inactive) | 16.7 µM (inactive) | 1.44 µM (inactive) | 1.61 µM (inactive) | 7.14 µM (inactive) | 5.27 µM (inactive) | 1.49 µM (inactive) | 5.69 µM (inactive) | 10.2 µM (inactive) | 16.1 µM (inactive) | 1.58 µM (inactive) | 0.469 µM (active) | 15.3 µM (inactive) | 0.676 µM (active) | 5.96 µM (inactive) | 2.45 µM (inactive) | 1.37 µM (inactive) | 16.2 µM (inactive)
CC(C)(C)c1cc2c(OC/C=C/c3ccccc3)c(c1)Cc1cc(C(C#N)(OC/C=C/c3ccccc3)OC/C=C/c3ccccc3)cc(c1OC/C=C\c1ccccc1)Cc1cc(C(C)(C)C)cc(c1OC/C=C/c1ccccc1)Cc1cc(C(C#N)(OC/C=C\c3ccccc3)OC/C=C/c3ccccc3)cc(c1OC/C=C\c1ccccc1)C2 (stereo not given) | > 100 µM (inactive) | > 100 µM (inactive) | > 100 µM (inactive) | > 100 µM (inactive) | > 100 µM (inactive) | 1.95 µM (inactive) | > 100 µM (inactive) | > 100 µM (inactive) | 20.7 µM (inactive) | > 100 µM (inactive) | > 100 µM (inactive) | > 100 µM (inactive) | > 100 µM (inactive) | > 100 µM (inactive) | > 100 µM (inactive) | > 100 µM (inactive) | > 100 µM (inactive) | 30.1 µM (inactive) | > 100 µM (inactive) | > 100 µM (inactive)
CC(C)(C)OC(=O)N1C(OP(=O)(Oc2ccccc2)Oc2ccccc2)=COc2cccnc21 | 16.2 µM (inactive) | 43.2 µM (inactive) | 82.6 µM (inactive) | 98.2 µM (inactive) | 17.7 µM (inactive) | 31 µM (inactive) | 86.5 µM (inactive) | 70.1 µM (inactive) | 27.3 µM (inactive) | > 100 µM (inactive) | 18.4 µM (inactive) | 34.7 µM (inactive) | 94.6 µM (inactive) | 38.9 µM (inactive) | 46.6 µM (inactive) | 44.9 µM (inactive) | 69.8 µM (inactive) | 26.1 µM (inactive) | 21.8 µM (inactive) | 31.4 µM (inactive)
Cc1cccc(CC(Cc2ccc(C)cc2C(=O)O)C(=O)O)c1 (stereo not given) | > 100 µM (inactive) | > 100 µM (inactive) | > 100 µM (inactive) | 74.1 µM (inactive) | > 100 µM (inactive) | > 100 µM (inactive) | > 100 µM (inactive) | > 100 µM (inactive) | > 100 µM (inactive) | > 100 µM (inactive) | > 100 µM (inactive) | > 100 µM (inactive) | > 100 µM (inactive) | > 100 µM (inactive) | > 100 µM (inactive) | > 100 µM (inactive) | > 100 µM (inactive) | > 100 µM (inactive) | > 100 µM (inactive) | > 100 µM (inactive)
Cc1cc(C)nc(NS(=O)(=O)c2ccc(NNC(=O)c3cccc4c(NNc5ccc(S(=O)(=O)Nc6nc(C)cc(C)n6)cc5)c5ccccc5nc34)cc2)n1 | 20.7 µM (inactive) | 20.6 µM (inactive) | 21.8 µM (inactive) | 25.3 µM (inactive) | 26 µM (inactive) | 35.5 µM (inactive) | 23.4 µM (inactive) | 31.1 µM (inactive) | 20.5 µM (inactive) | 20.1 µM (inactive) | 16.9 µM (inactive) | 31.8 µM (inactive) | 21.8 µM (inactive) | 22.1 µM (inactive) | 30.5 µM (inactive) | 22.2 µM (inactive) | 25.2 µM (inactive) | 17.2 µM (inactive) | 25.6 µM (inactive) | 17.8 µM (inactive)
COc1ccc2nc3ccccc3c(NCCCCCN(CCCl)CCCl)c2c1 | < 0.0157 µM (active) | 0.0274 µM (active) | 0.0354 µM (active) | 0.192 µM (active) | 0.0165 µM (active) | 0.381 µM (active) | 0.358 µM (active) | 0.0283 µM (active) | < 0.01 µM (active) | 0.207 µM (active) | 0.119 µM (active) | 0.0255 µM (active) | 0.0218 µM (active) | 0.0227 µM (active) | < 0.0308 µM (active) | 0.0229 µM (active) | 0.101 µM (active) | 0.0294 µM (active) | 0.0317 µM (active) | 0.0933 µM (active)
